Measurements: patent US10179777B2, “3-(1H-benzimidazol-2-yl)-1H-pyridin-2-one derivatives” (MERCK PATENT GMBH, priority 2015, dated 2019)

System: ALK1-mediated SMAD1/5 phosphorylation in HUVEC cells
Assay: Cell-based immunofluorescence assay for ALK1-mediated SMAD1/5 phosphorylation in HUVEC cells
Conditions: Homo sapiens, 1.5 ng/ml BMP-9 with compound for 2 h, % nuclei with pSMAD1/5 signal, read-out: Smad 1/5 IC50
Description: In vitro cell-based Immunofluorescence-Assay for identification of inhibitors of ALK1-mediated SMAD1/5 phosphorylation in HUVEC cells:
ALK1 is a type I cell-surface receptor for the TGF-β superfamily of ligands. In adults ALK1 is mainly expressed on activated endothelial cells, e.g. during wound healing or in tumor angiogenesis. BMP9 and BMP10 are high affinity ligands for ALK1.
BMP9 and BMP10 binding leads to the phosphorylation of so-called Smad1 at Ser463 and Ser465 in the carboxy-terminal motif SSXS, as well as Smad5 and Smad8 at their corresponding sites. These phosphorylated Smads dimerize with the coactivating Smad4 and translocate to the nucleus, where they stimulate transcription of target genes.
Primary endothelial cells (HUVEC: Human Umbilical Vein Endothelial Cells; supplier Promocell) are cultivated in the culture medium obtained from Promocell (with supplements corresponding to 5% FCS) for maximum 5 passages, seeded into black 384-well culture plates with clear bottom (3000 cells/well/30 μl), and incubated for 16-24 hours at 37° C., 5% CO2 and 90% rH.
The following day cells were serum-starved for 2-3 h in order to stop TGF-ß-mediated signalling derived from ligands present in FBS. 1.5 ng/ml BMP-9 was than added in parallel with test compounds for 2 h at 37° C., 5% CO2 in order to identify compounds which block functional activity of ALK1 leading to phosphorylation and nuclear translocation of SMAD1/5/8.
After fixation (15 min 4% Formaldehyd in PBS) and permeabilization (10 min 0.2% Triton X-100 in PBS) an indirect immunocytochemical staining is performed with a specific Phospho-Smad1/5 (Ser463/465) antibody (Cell Signaling #9516) and Alexa488-labelled secondary anti-rabbit-IgG-antibody. DNA staining with Propidium Iodide allowed parallel cell counting. Image acquisition and analysis was performed on an MDS ImageXpress Ultra confocal High Content Reader using the image analysis software MetaXpress. Final read-out were % nuclei with a pSMAD1/5 signal above a defined background.
The final DMSO concentration in the assay was 0.5%. DMSO-treated HUVEC cells served as neutral control (=0%) and cells treated with 10 μM of a reference inhibitor described in a patent served as inhibitor control (=−100%). Raw data were normalised to the neutral and inhibitory references. The assay was performed as dose response (10 compound dilutions, 1 nM-30 μM).

For `Cc1[nH]c2ncccc2c1-c1c[nH]c(=O)c(-c2nc3cc(N4CCNCC4)ccc3[nH]2)c1` [Compound A45, 5-(2-Methyl-1H-pyrrolo[2,3-b]pyridin-3-yl)-3-(5-piperazin-1-yl-1H-benzimidazol-2-yl)-1H-pyridin-2-one], which IC50 is on record?
The IC50 was 5 µM.

With `O=c1[nH]cc(-c2ccnc3[nH]ccc23)cc1-c1nc2cc(N3CC4CCC(C3)N4)ccc2[nH]1` [Compound A46, 3-[6-(3,8-Diaza-bicyclo[3.2.1]oct-3-yl)-1H-benzimidazol-2-yl]-5-(1H-pyrrolo-[2,3-b]pyridin-4-yl)-1H-pyridin-2-one] as the compound, how does the IC50 read?
Its IC50 is 4.4 µM.

Which IC50 does the source give for `CN1C2CCC1CN(c1ccc3[nH]c(-c4cc(-c5ccnc6[nH]ccc56)c[nH]c4=O)nc3c1)C2` [Compound A53, 3-[6-(8-Methyl-3,8-diaza-bicyclo[3.2.1]oct-3-yl)-1H-benzimidazol-2-yl]-5-(1H-pyrrolo[2,3-b]pyridin-4-yl)-1H-pyridin-2-one] here?
Its IC50 is 2.8 µM.
